The values that follow come from PMC9501232, “Novel 4-Azapregnene Derivatives as Potential Anticancer Agents: Synthesis, Antiproliferative Activity and Molecular Docking Studies” (Molecules, 2022).

In this assay the test system is T47-D cells. Kind of assay: Cell nuclear morphology and distribution analysis with ImageJ. It counts as cell-based, human. The source says:
The nuclear measurements were achieved by converting 16-bit photomicrographs of Hoechst 3342-stained nuclei, in different conditions, into 8-bit images and then these images were autothresholded to binary photos using the default method “Make binary” function of ImageJ v 1.49. Cell nuclei that are touching were separated and fragments were discarded based on the area through the “Analyze Particle” function. This function also provides several information pretended as nuclear area, circumference and form factor [33]. In addition, the “Nearest Neighbor Distance” was determined. This function allows measuring the distance between each cell nucleus and the nearest ones.

`C[C@]12CC[C@H]3[C@@H](CC=C4NC(=O)CC[C@@]43C)[C@@H]1CC[C@@H]2C(=O)/C=C/c1cccnc1` [Compound 3g, 21E-[(Pyridin-3-yl)methylidene]-4-azapregn-5-ene-3,20-dione]: the Nuclear area result (20 µM, 24, 48 and 72 h, vs control) is listed as “significant decrease in the nuclear area”. In addition, the “Nearest neighbor distance (NND) of cell nuclei” value (20 µM, 48 and 72 h) is “different distances”.
